Data as given in patent US10787452B2 (Vertex Pharmaceuticals Incorporated, priority 2012, dated 2020).

Tested on: HCT116 colorectal cancer cells
Experiment: Cisplatin sensitization assay (96 h cell viability MTS);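 further: compound concentration needed to lower the Cisplatin-alone IC50 by a set fold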
Format: cell-based
Conditions: 96 h MTS, compound plus Cisplatin
How it was run: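 Full-matrix combination: compound × cisplatin, 2-fold dilutions from 10 μM top final, co-added; 96 h, 37° C, 5% CO2; MTS read-out after 1 h.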

Row | SMILES | Cisplatin Sensitization Assay
1 | N#C[C@@H]1CCN(c2c(Cl)cncc2NC(=O)c2c(N)nn3cc(F)cnc23)C1 [I-N-285, (R)-2-amino-N-(5-chloro-4-(3-cyanopyrrolidin-1-yl)pyridin-3-yl)-6-fluoropyrazolo[1,5-a]pyrimidine-3-carboxamide] | ++ (Compounds with a Cisplatin sensitization value >0.02 μM but <0.2 μM are marked with “++.”)
2 | CN1CC2CN(c3c(Cl)cncc3NC(=O)c3c(N)nn4cc(F)cnc34)CC2C1 (centres unmarked) [I-N-286, 2-amino-N-(5-chloro-4-(5-methylhexahydropyrrolo[3,4-c]pyrrol-2(1H)-yl)pyridin-3-yl)-6-fluoropyrazolo[1,5-a]pyrimidine-3-carboxamide] | ++ (Compounds with a Cisplatin sensitization value >0.02 μM but <0.2 μM are marked with “++.”)
3 | CS(=O)(=O)C1CCN(c2c(Cl)cncc2NC(=O)c2c(N)nn3cc(F)cnc23)C1 (centres unmarked) [I-N-287, 2-amino-N-(5-chloro-4-(3-(methylsulfonyl)pyrrolidin-1-yl)pyridin-3-yl)-6-fluoropyrazolo[1,5-a]pyrimidine-3-carboxamide] | +++ (Compounds with a Cisplatin sensitization value of <0.02 μM are marked with “+++.”)
4 | Nc1nn2cc(F)cnc2c1C(=O)Nc1cncc(F)c1N1CCC(n2ccnc2)CC1 [I-N-288, N-(4-(4-(1H-imidazol-1-yl)piperidin-1-yl)-5-fluoropyridin-3-yl)-2-amino-6-fluoropyrazolo[1,5-a]pyrimidine-3-carboxamide] | +++ (Compounds with a Cisplatin sensitization value of <0.02 μM are marked with “+++.”)
5 | CN1CCN(C(=O)C2CCCN(c3c(F)cncc3NC(=O)c3c(N)nn4cc(F)cnc34)C2)CC1 (centres unmarked) [I-N-289, 2-amino-6-fluoro-N-(5-fluoro-4-(3-(4-methylpiperazine-1-carbonyl)piperidin-1-yl)pyridin-3-yl)pyrazolo[1,5-a]pyrimidine-3-carboxamide] | ++ (Compounds with a Cisplatin sensitization value >0.02 μM but <0.2 μM are marked with “++.”)
6 | CN(C)C(=O)C1CCCN(c2ccncc2NC(=O)c2c(N)nn3cc(F)cnc23)C1 (centres unmarked) [I-N-290, 2-amino-N-(4-(3-(dimethylcarbamoyl)piperidin-1-yl)pyridin-3-yl)-6-fluoropyrazolo[1,5-a]pyrimidine-3-carboxamide] | ++ (Compounds with a Cisplatin sensitization value >0.02 μM but <0.2 μM are marked with “++.”)
7 | CN1CC[C@H](Oc2ccncc2NC(=O)c2c(N)nn3cc(F)cnc23)C1 [I-O-1, (S)-2-amino-6-fluoro-N-(4-((1-methylpyrrolidin-3-yl)oxy)pyridin-3-yl)pyrazolo[1,5-a]pyrimidine-3-carboxamide] | +++ (Compounds with a Cisplatin sensitization value of <0.02 μM are marked with “+++.”)
8 | CN(C)Cc1ccc(Oc2ccncc2NC(=O)c2c(N)nn3cc(F)cnc23)cn1 [I-O-3, 2-amino-N-(4-((6-((dimethylamino)methyl)pyridin-3-yl)oxy)pyridin-3-yl)-6-fluoropyrazolo[1,5-a]pyrimidine-3-carboxamide] | ++ (Compounds with a Cisplatin sensitization value >0.02 μM but <0.2 μM are marked with “++.”)
9 | COc1ccncc1NC(=O)c1c(N)nn2cc(F)cnc12 [I-O-4, 2-amino-6-fluoro-N-(4-methoxypyridin-3-yl)pyrazolo[1,5-a]pyrimidine-3-carboxamide] | ++ (Compounds with a Cisplatin sensitization value >0.02 μM but <0.2 μM are marked with “++.”)
10 | Nc1nn2cc(F)cnc2c1C(=O)Nc1cnccc1O[C@H]1CN2CCC1CC2 [I-O-5, (R)-2-amino-6-fluoro-N-(4-(quinuclidin-3-yloxy)pyridin-3-yl)pyrazolo[1,5-a]pyrimidine-3-carboxamide] | +++ (Compounds with a Cisplatin sensitization value of <0.02 μM are marked with “+++.”)
11 | Nc1nn2cc(F)cnc2c1C(=O)Nc1cnccc1Oc1cccnc1 [I-O-7, 2-amino-6-fluoro-N-(4-(pyridin-3-yloxy)pyridin-3-yl)pyrazolo[1,5-a]pyrimidine-3-carboxamide] | ++ (Compounds with a Cisplatin sensitization value >0.02 μM but <0.2 μM are marked with “++.”)
12 | Nc1nn2cc(F)cnc2c1C(=O)Nc1cnccc1OC1CCC(C(=O)O)CC1 (centres unmarked) [I-O-8, 4-((3-(2-amino-6-fluoropyrazolo[1,5-a]pyrimidine-3-carboxamido)pyridin-4-yl)oxy)cyclohexanecarboxylic acid] | + (Compounds with a Cisplatin sensitization value >0.2 μM but <5 μM are marked with “+.”)
13 | Nc1nn2cc(F)cnc2c1C(=O)Nc1cnccc1O[C@H]1CCCN(C2COC2)C1 [I-O-9, (S)-2-amino-6-fluoro-N-(4-((1-(oxetan-3-yl)piperidin-3-yl)oxy)pyridin-3-yl)pyrazolo[1,5-a]pyrimidine-3-carboxamide] | ++ (Compounds with a Cisplatin sensitization value >0.02 μM but <0.2 μM are marked with “++.”)
14 | Nc1nn2cc(F)cnc2c1C(=O)Nc1cnccc1O[C@@H]1CN2CCC1CC2 [I-O-10, (S)-2-amino-6-fluoro-N-(4-(quinuclidin-3-yloxy)pyridin-3-yl)pyrazolo[1,5-a]pyrimidine-3-carboxamide] | +++ (Compounds with a Cisplatin sensitization value of <0.02 μM are marked with “+++.”)
15 | Nc1nn2cc(F)cnc2c1C(=O)Nc1cnccc1OC1CCN(C2COC2)CC1 [I-O-11, 2-amino-6-fluoro-N-(4-((1-(oxetan-3-yl)piperidin-4-yl)oxy)pyridin-3-yl)pyrazolo[1,5-a]pyrimidine-3-carboxamide] | +++ (Compounds with a Cisplatin sensitization value of <0.02 μM are marked with “+++.”)
16 | CN1CCC(Oc2ccncc2NC(=O)c2c(N)nn3cc(F)cnc23)CC1 [I-O-12, 2-amino-6-fluoro-N-(4-((1-methylpiperidin-4-yl)oxy)pyridin-3-yl)pyrazolo[1,5-a]pyrimidine-3-carboxamide] | +++ (Compounds with a Cisplatin sensitization value of <0.02 μM are marked with “+++.”)
17 | COC(=O)[C@H]1CC[C@H](Oc2ccncc2NC(=O)c2c(N)nn3cc(F)cnc23)CC1 [I-O-13, (1r,4r)-methyl 4-((3-(2-amino-6-fluoropyrazolo[1,5-a]pyrimidine-3-carboxamido)pyridin-4-yl)oxy)cyclohexanecarboxylate] | +++ (Compounds with a Cisplatin sensitization value of <0.02 μM are marked with “+++.”)
18 | CCOc1ccncc1NC(=O)c1c(N)nn2cc(F)cnc12 [I-O-14, 2-amino-N-(4-ethoxypyridin-3-yl)-6-fluoropyrazolo[1,5-a]pyrimidine-3-carboxamide] | +++ (Compounds with a Cisplatin sensitization value of <0.02 μM are marked with “+++.”)
19 | Nc1nn2cc(F)cnc2c1C(=O)Nc1cnccc1O[C@H]1Cc2nccn2C1 [I-O-16, (S)-2-amino-N-(4-((6,7-dihydro-5H-pyrrolo[1,2-a]imidazol-6-yl)oxy)pyridin-3-yl)-6-fluoropyrazolo[1,5-a]pyrimidine-3-carboxamide] | +++ (Compounds with a Cisplatin sensitization value of <0.02 μM are marked with “+++.”)
20 | CN(C)C(=O)[C@H]1CC[C@@H](Oc2ccncc2NC(=O)c2c(N)nn3cc(F)cnc23)CC1 [I-O-17, 2-amino-N-(4-(((1s,4s)-4-(dimethylcarbamoyl)cyclohexyl)oxy)pyridin-3-yl)-6-fluoropyrazolo[1,5-a]pyrimidine-3-carboxamide] | +++ (Compounds with a Cisplatin sensitization value of <0.02 μM are marked with “+++.”)
